Results: patent US10239933B2, “Compositions and methods for modulating thrombin generation” (The Children's Hospital of Philadelphia, priority 2011, dated 2019)
Where two headings read alike, the source gives them in different places. Ends that are not written are not given here.

Assays:
FXa/FVa = molecular target: T1, FXa/FVa (Homo sapiens, UniProt P12259); assay: Prothrombin activation assay, FXa/FVa; type: biochemical
T1 construct: thrombin rapidly cleaves Factor V at Arg709 to produce heavy chain (HC); rapidly cleaves at Arg1018 and Arg1545 to produce light chain (LC); made in house
T1 sequence (P12259 29-737 limits assumed): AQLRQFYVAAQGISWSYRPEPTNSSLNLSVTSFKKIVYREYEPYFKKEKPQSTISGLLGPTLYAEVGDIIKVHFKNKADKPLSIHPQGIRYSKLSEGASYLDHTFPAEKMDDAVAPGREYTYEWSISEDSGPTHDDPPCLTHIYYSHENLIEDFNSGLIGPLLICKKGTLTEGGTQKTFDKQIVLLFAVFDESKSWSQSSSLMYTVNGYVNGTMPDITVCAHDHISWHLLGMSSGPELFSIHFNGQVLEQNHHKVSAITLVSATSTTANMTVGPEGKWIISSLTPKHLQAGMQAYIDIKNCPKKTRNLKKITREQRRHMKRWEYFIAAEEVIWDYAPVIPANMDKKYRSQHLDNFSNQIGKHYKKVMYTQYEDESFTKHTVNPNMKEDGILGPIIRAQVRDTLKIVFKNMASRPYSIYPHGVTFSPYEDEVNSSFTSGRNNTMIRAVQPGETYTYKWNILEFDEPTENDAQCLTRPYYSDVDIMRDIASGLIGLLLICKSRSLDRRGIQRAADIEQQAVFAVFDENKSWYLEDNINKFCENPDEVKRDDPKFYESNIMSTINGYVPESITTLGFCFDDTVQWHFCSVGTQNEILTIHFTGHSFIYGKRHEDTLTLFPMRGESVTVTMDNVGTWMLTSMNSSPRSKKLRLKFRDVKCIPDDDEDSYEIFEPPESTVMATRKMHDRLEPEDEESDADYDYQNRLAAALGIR
T1 sequence (P12259 1574-2224 limits assumed): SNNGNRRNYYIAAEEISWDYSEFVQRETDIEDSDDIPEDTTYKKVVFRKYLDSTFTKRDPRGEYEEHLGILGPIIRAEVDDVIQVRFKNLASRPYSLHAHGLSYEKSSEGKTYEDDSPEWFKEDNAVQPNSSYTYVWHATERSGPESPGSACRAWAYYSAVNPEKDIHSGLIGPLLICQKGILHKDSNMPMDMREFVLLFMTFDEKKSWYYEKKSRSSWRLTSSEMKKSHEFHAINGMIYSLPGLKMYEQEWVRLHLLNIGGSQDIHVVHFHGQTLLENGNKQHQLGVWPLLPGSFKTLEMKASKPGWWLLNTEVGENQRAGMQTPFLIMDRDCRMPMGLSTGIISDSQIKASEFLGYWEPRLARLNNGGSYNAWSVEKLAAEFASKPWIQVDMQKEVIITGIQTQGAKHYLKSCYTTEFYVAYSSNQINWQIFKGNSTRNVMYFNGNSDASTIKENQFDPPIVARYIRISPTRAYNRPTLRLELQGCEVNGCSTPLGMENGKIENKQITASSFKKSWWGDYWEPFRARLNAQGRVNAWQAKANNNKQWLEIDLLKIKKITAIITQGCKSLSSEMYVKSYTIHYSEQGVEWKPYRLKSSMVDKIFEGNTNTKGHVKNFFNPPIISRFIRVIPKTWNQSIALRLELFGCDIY
Procedure: Steady-state initial velocities of prothrombin cleavage were determined discontinuously at 25° C. by measuring the initial rate of thrombin formation. Reaction mixtures contained liposomes (75:25, PC:PS), prothrombin, the indicated Factor V variants, and the Factor V peptides FVBR or s46. The reactions were initiated by adding Factor Xa, and thrombin generation was determined at multiple time points by monitoring the cleavage of the chromogenic thrombin substrate S-2238.
Steady-state initial velocities of prothrombin cleavage were determined discontinuously at 25° C. as described (Camire, R. M. (2002) J. Biol. Chem., 277:37863-37870). Reaction mixtures containing PCPS (50 μM), DAPA (3 μM), prothrombin (1.4 μM), and either rFVa or the indicated FV-810 derivatives were incubated with B-domain peptides (0-10 μM) in assay buffer. […] Prothrombin activation was determined using the chromogenic thrombin substrate 52238 as described (Camire, R. M. (2002) J. Biol. Chem., 277:37863-37870).

FV-810 [1] = molecular target: T2, FV-810 (Homo sapiens, UniProt P12259, DEL839-1519); assay: Displacement of OG488-BR from preformed OG488-BR/FV-810 complex (fluorescence anisotropy); type: binding; details: 30 nM OG488-BR, 20 nM FV-810, 50 μM PCPS; for Kd: 25° C.
T2 construct: amino acids 1-28 are a signal peptide that is cleaved and numbering begins at residue 29; made in house

FV-810 [2] = molecular target: T2, FV-810; assay: Fluorescence anisotropy, direct binding of OG488-BR to FV-810; details: fluorescently labeled FVBR
FV-810^R709Q = molecular target: T3, FV-810^R709Q (Homo sapiens, UniProt P12259, DEL839-1519/R737Q); assay: Clotting assay with FV-810^R709Q; type: biochemical; details: prior to thrombin cleavage
T3 construct: amino acids 1-28 are a signal peptide that is cleaved and numbering begins at residue 29; made in house
Procedure: (§1) Residual clotting activity of Factor V variants was determined by prothrombin time-based clotting assays. Factor V variants were incubated with either the FVBR or s46 peptide, after which the mixtures were mixed with Factor V deficient plasma and clotting times were measured. Where indicated, the Factor V variants were activated by pre-incubation with thrombin prior to addition of the peptides.
(§2) FV derivatives (500 nM) were prepared in assay buffer. Where noted, FV derivatives were pretreated with 10 nM thrombin for 15 minutes at 37° C., followed by the addition of 15 nM hirudin. Samples were diluted to 0.25 nM in assay buffer with 0.1% BSA, and the specific clotting activity was measured in FV-deficient plasma (George King Bio-Medical, Overland Park, Kans.) with TriniCLOT PT Excel (Tcoag, Wicklow, Ireland) as described (Camire et al. (1998) Biochemistry 37:11896-11906). The data are presented as the means±S.D.

FV-810^QQ = molecular target: T4, FV-810^QQ (Homo sapiens, UniProt P12259, DEL839-1519/R1573Q/R737Q); assay: Clotting assay with FV-810^QQ; type: biochemical
T4 construct: amino acids 1-28 are a signal peptide that is cleaved and numbering begins at residue 29; made in house
Procedure: as §1, §2

FV-810 [3] = molecular target: T2, FV-810; assay: Clotting assay, FV-deficient plasma supplemented with FV-810 (FV-DT); type: biochemical; details: for inhibition of clotting activity of FV-810 (FV-DT): FV-deficient plasma, FIG. 8A: 0.25 nM FV-810, peptides at 5 μM
Procedure: as §1, §2

T2 sequence (P12259 with tags, fused parts or gaps DEL839-1519): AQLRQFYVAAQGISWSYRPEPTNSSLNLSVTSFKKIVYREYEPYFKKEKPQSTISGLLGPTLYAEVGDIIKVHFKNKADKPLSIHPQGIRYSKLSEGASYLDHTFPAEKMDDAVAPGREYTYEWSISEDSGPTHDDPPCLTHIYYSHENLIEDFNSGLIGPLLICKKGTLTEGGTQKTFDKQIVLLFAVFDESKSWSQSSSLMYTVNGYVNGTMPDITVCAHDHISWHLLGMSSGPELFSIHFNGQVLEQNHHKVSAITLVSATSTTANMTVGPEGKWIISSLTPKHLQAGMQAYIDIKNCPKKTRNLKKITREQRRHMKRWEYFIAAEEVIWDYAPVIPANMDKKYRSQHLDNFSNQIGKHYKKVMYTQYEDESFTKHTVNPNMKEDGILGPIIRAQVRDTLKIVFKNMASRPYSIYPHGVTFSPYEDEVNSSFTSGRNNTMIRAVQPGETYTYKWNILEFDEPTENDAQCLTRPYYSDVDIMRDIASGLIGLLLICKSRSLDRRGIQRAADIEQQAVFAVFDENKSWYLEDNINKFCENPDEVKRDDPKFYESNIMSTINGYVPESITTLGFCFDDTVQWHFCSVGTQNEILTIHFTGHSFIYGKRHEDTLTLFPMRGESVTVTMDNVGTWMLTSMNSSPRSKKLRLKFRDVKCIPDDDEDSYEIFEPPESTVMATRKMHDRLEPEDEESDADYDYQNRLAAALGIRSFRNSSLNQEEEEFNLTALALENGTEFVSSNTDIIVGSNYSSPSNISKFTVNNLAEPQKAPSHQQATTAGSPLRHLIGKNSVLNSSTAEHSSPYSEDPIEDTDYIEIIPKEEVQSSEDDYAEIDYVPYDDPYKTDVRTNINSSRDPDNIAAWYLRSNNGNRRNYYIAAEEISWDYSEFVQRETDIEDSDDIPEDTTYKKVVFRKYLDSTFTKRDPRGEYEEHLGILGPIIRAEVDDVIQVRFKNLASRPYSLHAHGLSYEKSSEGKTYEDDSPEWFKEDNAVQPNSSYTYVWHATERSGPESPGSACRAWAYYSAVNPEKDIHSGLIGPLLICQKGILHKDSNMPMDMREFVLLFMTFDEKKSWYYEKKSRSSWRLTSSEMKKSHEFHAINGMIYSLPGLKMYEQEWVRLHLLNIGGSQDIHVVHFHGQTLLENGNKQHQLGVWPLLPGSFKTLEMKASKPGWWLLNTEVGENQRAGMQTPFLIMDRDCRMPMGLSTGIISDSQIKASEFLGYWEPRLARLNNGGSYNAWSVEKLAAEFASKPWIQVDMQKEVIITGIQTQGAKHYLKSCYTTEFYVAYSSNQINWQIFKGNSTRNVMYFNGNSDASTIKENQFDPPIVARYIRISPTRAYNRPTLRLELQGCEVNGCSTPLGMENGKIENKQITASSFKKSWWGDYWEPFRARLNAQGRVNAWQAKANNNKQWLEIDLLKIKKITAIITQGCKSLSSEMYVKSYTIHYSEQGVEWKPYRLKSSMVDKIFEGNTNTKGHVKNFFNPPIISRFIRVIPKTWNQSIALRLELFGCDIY
T4 sequence (P12259 with tags, fused parts or gaps R737Q/DEL839-1519/R1573Q): as the sequence (P12259 with tags, fused parts or gaps DEL839-1519) above, with R709Q, R864Q counted along it
T3 sequence (P12259 with tags, fused parts or gaps R737Q/DEL839-1519): as the sequence (P12259 with tags, fused parts or gaps DEL839-1519) above, with R709Q counted along it

## SRAWGESTPLANKPGKQSGHPKFPRVRHKSLQVRQDGGKSRLKKSQFLIKTRKKKKEK [FVBR]
FXa/FVa
  effect on prothrombin activation by FXa/FVa: did not affect
FXa/FVa; listed as BR peptide
  effect on prothrombin activation by FXa/FVa: no inhibitory effect
FV-810 [1]
  stoichiometry n, unlabeled BR: 1.0±0.06 mol of BR/mol of FV-810
FV-810 [1]; assuming stoichiometry of 1 mol of FV-810/mol of BR peptide
  Kd: 2.2 ± 0.2 nM
FV-810 [1]; n fitted
  Kd: 2.1 ± 0.2 nM
FV-810 [2]
  direct binding to FVDT: direct binding
FV-810 [2]; listed as FV basic region peptide
  direct binding to FVDT: binds FVDT
FV-810^R709Q
  inhibition of FV-810^R709Q: potently inhibited
FV-810^QQ; following incubation with thrombin
  inhibition of FV-810^QQ: still inhibited
FV-810^QQ; prior to thrombin cleavage
  inhibition of FV-810^QQ: potently inhibited
FV-810 [3]
  inhibition of clotting activity of FV-810 (FV-DT): inhibited
FV-810 [3]; listed as BR peptide
  inhibition of clotting activity of FV-810 (FV-DT): similarly inhibited
FV-810 [3]; prior to thrombin cleavage
  inhibition of FV-810: potently inhibited
